Experiments:
hGPR119 = molecular target: T1, hGPR119 (Homo sapiens, UniProt Q8TDV5); assay: HTRF cAMP assay in CHO-K1 cells stably expressing the GPR119 receptor; type: cell-based
T1 construct: expressed in transfected cells
T1 sequence (Q8TDV5 2-335 limits assumed): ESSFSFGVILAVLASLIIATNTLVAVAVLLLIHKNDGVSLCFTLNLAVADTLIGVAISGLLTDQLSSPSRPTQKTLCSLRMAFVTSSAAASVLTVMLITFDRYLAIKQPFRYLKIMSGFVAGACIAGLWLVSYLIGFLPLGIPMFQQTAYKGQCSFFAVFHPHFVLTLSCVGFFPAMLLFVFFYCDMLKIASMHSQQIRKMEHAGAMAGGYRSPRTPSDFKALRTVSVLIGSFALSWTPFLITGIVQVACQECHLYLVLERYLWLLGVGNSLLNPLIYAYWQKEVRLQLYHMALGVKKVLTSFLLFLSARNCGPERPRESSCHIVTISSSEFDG
Description: GPR119 agonists were evaluated in an HTRF® cAMP detection assay according to the manufacturer's instructions (Cisbio, cAMP Dynamic 2 Assay Kit; #62AM4PEJ) using CHO-K1 cells stably expressing the GPR119 receptor. Briefly, CHO-K1 cells were transduced with a lentiviral vector encoding the nucleotide sequence of GPR119 (NCBI mRNA and protein reference sequences: NM_178471.2 & NP_848566, (GPR119 has also been referred to as Glucose-Dependent Insulinotropic Receptor (GDIR)). The N-terminus of the GPR119 nucleotide sequence was modified to replace the first, methionine-coding codon with a nucleotide sequence coding for a standard, nine amino acid, hemagglutinin tag. Following transduction, cells expressing the GPR119 receptor were isolated and a single clone was isolated following standard dilution-cloning procedures. On the day of the assay, cultured CHO-GPR119 cells were harvested, suspended in assay buffer and plated into 384-well assay plates (PerkinElmer Proxiplate #6008280) at a density of 2,000 cells per well. A cAMP standard curve was added to each plate. Test compounds were solubilized in DMSO, serially diluted in DMSO and then diluted in assay buffer before adding to the cells. Test compounds were evaluated in triplicate, using 10-point, 5-fold serial dilutions starting at 10 μM. The final DMSO concentration in the assay was 0.5%. Compounds and cells were incubated for 1 h at room temperature and then detection reagents were added to each well (cAMP-D2 in cell lysis buffer, followed by europium cryptate-labeled anti-cAMP antibody). Plates were then incubated at room temperature for 1 h prior to reading. Time-resolved fluorescence measurements were collected on PerkinElmer Envision™ or BMG Pherastar™ microplate readers. The compound N-(2-fluoro-4-(methylsulfonyl)phenyl)-6-(4-(3-isopropyl-1,2,4-oxadiazol-5-yl)piperidin-1-yl)-5-nitropyrimidin-4-amine was used as a positive control in each runset while assay buffer containing 0.5% DMSO was used as the negative control. The HTRF® assay was used to determine EC50 values for GPR119 agonists.

Male 129SVE mice [1] = assay: Oral glucose tolerance test (oGTT) in male 129SVE mice; type: in vivo; settings: for plasma glucose level, Mean: oGTT, in mg/dL (unit assumed)
Description: Male 129SVE mice (approximately 8-week old) were fasted for 18 h and randomly grouped (n=6) to receive a GPR119 agonist (Compound 8) at 3, or 30 mg/kg (mg/kg body weight). The compound was delivered orally via a gavage needle (p.o., volume at 4 mL/kg) 30 minutes prior to glucose bolus (3 g/kg) (time=−30 min in FIG. 1), with a separate group receiving vehicle (20% hydroxypropyl-beta-cyclodextrin) as control. At time 0 min the glucose bolus was administered. Levels of blood glucose were assessed using a glucometer (One-Touch Ultra™, LifeScan) at time −30 minute (prior to compound administration), at 0 min (at time when glucose bolus was given), and at 20, 40, 60, 120 minutes post glucose bolus. The plasma glucose level (Table 1) and glucose excursion curve (FIG. 1) are shown. Glucose excursion AUC (area under the curve) reduction in compound treated animals relative to vehicle control is given in FIG. 2.

Male 129SVE mice [2] = assay: In vivo incretin hormone GIP release (plasma total GIP, ELISA); settings: 3 or 30 mpk p.o., blood sample after 45 min
Description: Male 129SVE mice (approximately 8-week old) were fasted for 18 h and randomly grouped (n=6) to receive a GPR119 agonist (Compound 8) at 3 or 30 mpk dose (mg/kg body weight). Compound 8 were delivered orally via a gavage needle (p.o., volume at 4 mL/kg), and after 45 min a blood sample was collected to determine plasma total GIP levels. A separate group received vehicle (PET: 80% PEG:10% Ethanol:10% Tween80™) as control. Plasma GIP levels were determined using a Total GIP ELISA kit from Millipore.

SMILES	EC50 (hGPR119) [nM]	further results
CC(C)(C)OC(=O)N1CCC(CO[C@H]2CC[C@H](c3ccc(S(C)(=O)=O)cc3)CC2)CC1 [Compound 1, tert-Butyl 4-((4-(4-(Methylsulfonyl)phenyl)cyclohexyloxy)methyl)piperidine-1-carboxylate]	16	
CCc1cnc(N2CCC(CO[C@H]3CC[C@H](c4ccc(S(C)(=O)=O)cc4F)CC3)CC2)nc1 [Compound 8, 5-Ethyl-2-(4-(((1r,4r)-4-(2-fluoro-4-(methylsulfonyl)phenyl)cyclohexyloxy)methyl)piperidin-1-yl)pyrimidine]		effect on blood glucose after glucose challenge (Male 129SVE mice [1]; 129SVE mice, 3 or 30 mg/kg p.o., 30 min prior to glucose bolus (3 g/kg)): lowered blood glucose; plasma glucose level, Mean (Male 129SVE mice [1]; 3 mpk p.o., 20 min post glucose bolus): 201.3; plasma glucose level, Mean (Male 129SVE mice [1]; 3 mpk p.o., 40 min post glucose bolus): 250.2; plasma glucose level, Mean (Male 129SVE mice [1]; 3 mpk p.o., 60 min post glucose bolus): 262.8; plasma glucose level, Mean (Male 129SVE mice [1]; 3 mpk p.o., 120 min post glucose bolus): 163.3; plasma glucose level, Mean (Male 129SVE mice [1]; 3 mpk p.o., time 0 min relative to glucose bolus): 112.5; plasma glucose level, Mean (Male 129SVE mice [1]; 3 mpk p.o., time −30 min relative to glucose bolus (prior to compound administration)): 88.7; plasma glucose level, Mean (Male 129SVE mice [1]; 30 mpk p.o., 20 min post glucose bolus): 163.5; plasma glucose level, Mean (Male 129SVE mice [1]; 30 mpk p.o., 40 min post glucose bolus): 204.2; plasma glucose level, Mean (Male 129SVE mice [1]; 30 mpk p.o., 60 min post glucose bolus): 193.2; plasma glucose level, Mean (Male 129SVE mice [1]; 30 mpk p.o., 120 min post glucose bolus): 107.5; plasma glucose level, Mean (Male 129SVE mice [1]; 30 mpk p.o., time 0 min relative to glucose bolus): 96.0; plasma glucose level, Mean (Male 129SVE mice [1]; 30 mpk p.o., time −30 min relative to glucose bolus (prior to compound administration)): 72.2; effect on plasma total GIP release (Male 129SVE mice [2]): stimulates the release of GIP
CC(C)OC(=O)N1CCC(CO[C@H]2CC[C@H](c3ccc(S(C)(=O)=O)cc3F)CC2)CC1 [Compound 11, Isopropyl 4-(((1r,4r)-4-(2-Fluoro-4-(methylsulfonyl)phenyl)cyclohexyloxy)methyl)piperidine-1-carboxylate]	21	
CC(C)(C)OC(=O)N1CCC(CO[C@H]2CC[C@@H](c3cnc(S(C)(=O)=O)cn3)CC2)CC1 [Compound 12, tert-Butyl 4-((-4-(5-(Methylsulfonyl)pyrazin-2-yl)cyclohexyloxy)methyl)piperidine-1-carboxylate]	707	
CC(C)(F)c1noc(N2CCC(CO[C@H]3CC[C@H](c4ccc(S(C)(=O)=O)cc4F)CC3)CC2)n1 [Compound 16, 5-(4-(((1r,4r)-4-(2-Fluoro-4-(methylsulfonyl)phenyl)cyclohexyloxy)methyl)piperidin-1-yl)-3-(2-fluoropropan-2-yl)-1,2,4-oxadiazole]	38	
CS(=O)(=O)c1ccc([C@H]2CC[C@H](OCC3CCN(c4ncc(C(F)(F)F)cn4)CC3)CC2)nc1 [Compound 18]	134	
CC(C)c1noc(N2CCC(COC3CC=C(c4ccc(S(C)(=O)=O)cc4)CC3)CC2)n1 (stereo not shown) [Compound 23, 3-Isopropyl-5-(4-((4-(4-(Methylsulfonyl)phenyl)cyclohex-3-enyloxy)methyl)piperidin-1-yl)-1,2,4-oxadiazole]	15	
Cc1nc(S(C)(=O)=O)ccc1[C@H]1CC[C@H](OCC2CCN(c3ncc(C(F)(F)F)cn3)CC2)CC1 [Compound 31, 2-(4-(((1r,4r)-4-(2-Methyl-6-(methylsulfonyl)pyridin-3-yl)cyclohexyloxy)methyl)piperidin-1-yl)-5-(trifluoromethyl)pyrimidine]	42	
CC(C)OC(=O)N1CCC(CO[C@H]2CC[C@H](c3ccc(S(C)(=O)=O)cc3)CC2)CC1 [Compound 38, Isopropyl 4-((4-(4-(Methylsulfonyl)phenyl)cyclohexyloxy)methyl)piperidine-1-carboxylate]	57	
CSc1ccc([C@H]2CC[C@H](OCC3CCN(C(=O)OC(C)(C)C)CC3)CC2)cc1 [Compound 41, tert-Butyl 4-((4-(4-(Methylthio)phenyl)cyclohexyloxy)methyl)piperidine-1-carboxylate]	505	
CC(C)(C)OC(=O)N1CCC(CO[C@H]2CC[C@H](c3ccc(S(C)(=O)=O)cc3F)CC2)CC1 [Compound 42, tert-Butyl 4-((4-(2-Fluoro-4-(methylsulfonyl)phenyl)cyclohexyloxy)methyl)piperidine-1-carboxylate]	6.4	
CC(C)(C)OC(=O)N1CCC(CO[C@H]2CC[C@H](c3ccncc3C#N)CC2)CC1 [Compound 49, tert-Butyl 4-(((1r,4r)-4-(3-Cyanopyridin-4-yl)cyclohexyloxy)methyl)piperidine-1-carboxylate]	1030	
CC(C)(C)OC(=O)N1CCC(COC2CC=C(c3ccncc3C#N)CC2)CC1 (stereo not shown) [Compound 50, tert-Butyl 4-((4-(3-Cyanopyridin-4-yl)cyclohex-3-enyloxy)methyl)piperidine-1-carboxylate]	38	
CC(C)(C)OC(=O)N1CCC(CO[C@H]2CC[C@H](c3ccncc3F)CC2)CC1 [Compound 56, tert-Butyl 4-(((1r,4r)-4-(3-Fluoropyridin-4-yl)cyclohexyloxy)methyl)piperidine-1-carboxylate]	63	
CS(=O)(=O)c1ccc([C@H]2CC[C@H](OCC3CCN(Cc4nc(C(F)(F)F)no4)CC3)CC2)c(F)c1 [Compound 60, 5-((4-(((1r,4r)-4-(2-Fluoro-4-(methylsulfonyl)phenyl)cyclohexyloxy)methyl)piperidin-1-yl)methyl)-3-(trifluoromethyl)-1,2,4-oxadiazole]	200	

Reference: patent publication US20140018371A1, “Modulators Of The GPR119 Receptor And The Treatment Of Disorders Related Thereto” (ARENA PHARMACEUTICALS, INC., priority 2011, published 2014)
